The conditions of series [1]: aqueous settings; cited from earlier work.
A short description of series [2]: DOSY NMR of saturated phenytoin with increasing polymer concentration. The class given is physicochemical. The note with it: deuterated PBS, poly(NIPAm70-co-DMA30) concentration increased (up to 1000 μg/mL).
For series [3] the following is noted: rat models; cited from earlier work.

Converted amounts (≈) assume the structure as drawn.

Results on two compounds are retold here after publication PMC5084074 (ACS Central Science, 2016).

One may read the solubility as how much of the substance goes into solution per volume.

For `O=C1NC(=O)C(c2ccccc2)(c2ccccc2)N1` [phenytoin], the solubility in series [1] was around 30 µg/mL (≈ 119 µM). Moreover, the “translational diffusion coefficient (D0) of phenytoin” value in series [2] was 3.72 ± 0.19 × 10^–10 m^2/s. For the compound `O=C1NC(c2ccccc2)(c2ccccc2)C(=O)N1COP(=O)(O)O` [fosphenytoin], in series [3], the “AUC over 24 h” value is listed as 1860 ± 310 μg/mL-min.
